This is an account of results in patent US10155727B2, “Pyrazoles” (Janssen Pharmaceuticals, Inc., priority 2014, dated 2018).

As usually defined, the IC50 is the point on the concentration scale where inhibition reaches its midpoint.

For one assay, the target named is rat NR1/NR2B receptor (Rattus norvegicus (Rat), UniProt P35439+Q00960). In words: NR2B binding assay: inhibition of specific [3H]-Ifenprodil binding to the rat NR1/NR2B receptor. The settings on record: [3H]-Ifenprodil binding, rat brain membranes. The protocol: Biological Assays Inhibition of Specific Binding to the Rat NR1/NR2B Receptor
Sequence of rat NR1/NR2B receptor (Q00960 27-1482, other chains not shown): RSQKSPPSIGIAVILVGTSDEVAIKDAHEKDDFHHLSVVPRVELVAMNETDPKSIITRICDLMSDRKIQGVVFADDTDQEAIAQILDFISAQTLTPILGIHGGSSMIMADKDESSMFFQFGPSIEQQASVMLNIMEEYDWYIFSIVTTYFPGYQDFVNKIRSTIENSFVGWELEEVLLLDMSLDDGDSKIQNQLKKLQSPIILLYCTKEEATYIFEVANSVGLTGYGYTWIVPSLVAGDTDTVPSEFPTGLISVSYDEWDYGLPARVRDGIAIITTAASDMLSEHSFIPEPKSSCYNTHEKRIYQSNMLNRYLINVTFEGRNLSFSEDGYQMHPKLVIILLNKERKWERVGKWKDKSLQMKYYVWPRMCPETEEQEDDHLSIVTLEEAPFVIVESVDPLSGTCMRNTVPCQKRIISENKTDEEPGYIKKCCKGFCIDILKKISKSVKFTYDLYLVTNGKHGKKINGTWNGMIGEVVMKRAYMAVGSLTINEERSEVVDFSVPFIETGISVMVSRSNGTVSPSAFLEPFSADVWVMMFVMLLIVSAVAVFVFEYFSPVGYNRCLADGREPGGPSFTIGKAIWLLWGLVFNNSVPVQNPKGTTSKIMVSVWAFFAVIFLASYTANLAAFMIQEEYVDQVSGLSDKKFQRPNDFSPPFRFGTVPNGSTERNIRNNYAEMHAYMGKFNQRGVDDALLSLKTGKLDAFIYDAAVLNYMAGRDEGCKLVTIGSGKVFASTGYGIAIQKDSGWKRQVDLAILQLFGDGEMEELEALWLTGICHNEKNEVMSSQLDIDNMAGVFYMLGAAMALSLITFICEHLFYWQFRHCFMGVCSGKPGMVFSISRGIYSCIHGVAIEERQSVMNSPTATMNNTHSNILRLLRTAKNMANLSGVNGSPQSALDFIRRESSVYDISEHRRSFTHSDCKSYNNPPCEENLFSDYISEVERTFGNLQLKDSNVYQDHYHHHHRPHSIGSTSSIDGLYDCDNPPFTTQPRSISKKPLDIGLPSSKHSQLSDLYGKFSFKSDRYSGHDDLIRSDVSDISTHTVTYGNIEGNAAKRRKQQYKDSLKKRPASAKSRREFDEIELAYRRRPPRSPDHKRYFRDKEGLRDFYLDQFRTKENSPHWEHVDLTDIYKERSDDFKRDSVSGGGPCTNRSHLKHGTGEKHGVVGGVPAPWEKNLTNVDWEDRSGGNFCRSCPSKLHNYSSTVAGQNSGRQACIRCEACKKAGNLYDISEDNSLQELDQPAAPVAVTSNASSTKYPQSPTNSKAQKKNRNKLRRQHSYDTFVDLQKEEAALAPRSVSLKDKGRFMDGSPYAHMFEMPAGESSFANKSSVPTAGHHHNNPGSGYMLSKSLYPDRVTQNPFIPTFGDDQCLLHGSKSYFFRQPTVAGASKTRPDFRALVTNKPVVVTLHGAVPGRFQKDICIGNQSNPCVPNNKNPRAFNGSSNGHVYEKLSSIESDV
Male Wistar rats (180 to 200 g) were killed by suffocation in a CO2 chamber for two minutes. Whole brains without cerebellum were removed and dissected on ice, placed into closed vials and stored at −70° C.
Membrane fractions were prepared and tested using standard techniques. At the time of the assay, 1 g of the brains was placed into 25 ml of 50 mM Tris/10 mM EDTA buffer, pH 7.1, (25 vol. per g of original tissue) and homogenized for 30 sec at 20000 rpm with an Ultraturrax T25 (Jahnke & Kunkel, IKA-Labortechnik, Staufen, Germany).
The supernatant was discarded and the pellet was homogenized on ice for 30 sec at 20000 rpm with an Ultraturrax and again centrifuged at 48000 g for 30 minutes at 4° C. The resultant pellet was resuspended in 25 ml of 50 mM Tris/10 mM EDTA buffer, homogenized for 30 sec with an Ultraturrax, aliquoted, frozen at −70° C. and stored until use.
After thawing on the day of the assay, a 5 ml membrane aliquot was centrifuged at 48000 g for 30 min at 4° C. The pellet was resuspended in 5 ml of 5 mM Tris/1 mM EDTA buffer, pH 7.4, homogenized for 30 sec at 20000 rpm with an Ultraturrax and centrifuged at 48000 g for 30 min at 4° C. This was repeated twice. The final pellet was homogenized in 5 ml of 5 mM Tris/1 mM EDTA buffer at 4° C. with an Ultraturrax and used for the Ifenprodil-binding assay as described in the following.
Nonspecific binding was estimated in the presence of […] CP101.606. The samples were incubated for 60 min. at 4° C.
The incubation was terminated by filtration of the membrane preparations using Filtermat B (Pharmacia, Uppsala Sweden) and a Micro Cell Harvester (Skatron, Lier, Norway). The Filtermat B had been presoaked with 1% polyethylene imine and carefully washed with 50 mM Tris/HCl-buffer pH 7.7 after the filtration to separate free and bound radioactivity.
The optimal amount of membrane preparation in the assay was determined and optimized for each membrane preparation separately before the test.
For pipetting of the incubation mixture the robot Biomek2000 (Fa. Beckman) was used.
For determination of IC50 values the Hill-plot, 2-parameter-model was used.

Assay [1] has as its target human NR1/NR2B ion channels (Homo sapiens (Human), UniProt Q05586+Q13224). In words: HNR2BC: calcium influx assay on cloned human NR1/NR2B ion channels expressed in HEK cells. In kind it is cell-based. The settings on record: HEK cells with hNR1/NR2B, 100 μM glutamate + 100 μM glycine, 3 parameter plot. The protocol: HNR2BC: Effects of Test Articles on Cloned Human NR1/NR2B Ion Channels Expressed in Mammalian Cells
The ability of test compounds to act as an antagonist of NR1/NR2B was evaluated with a calcium influx assay (Calcium 5 Assay Kit, Molecular Devices).
For the antagonist assessment, NR1/NR2B was activated with the positive control agonist (Mg^2+-free HBPS+100 μM glutamic acid+100 μM glycine).
A HEK cell line, stable transfected with hNR1/NR2B was used. This tetracycline inducible cell line is transfected with GRIN1 (GeneBank accession number NM_007327.2) and GRIN2B (GeneBank accession number NM_000834.3.). The cells were cultured in cell culture flasks with DMEM/F12 supplemented with 10% FCS, 1% PenStrep and a selection of additional antibiotics.
Forty-Eight (48) hours before the assay the cells were plated into 96-well black well, flat clear bottom microtiter plates at a density of 50000 cells/well. Twenty-Four (24) hours later the receptor expression was induced by the addition of 1 μg/ml tetracycline in the presence of 2 mM ketamine and 200 μM 7-CKA. After 24 h of receptor induction the plates were used for the assay.
The medium was removed and the cells were loaded with 200 μl loading buffer (Molecular Devices) in Mg2+-free HBPS containing 100 μM 7-CKA at 37° C. for one (1) hour.
The test compounds were then solubilized in 100% DMSO and diluted to yield eight (8) different concentrations in 100% DMSO. A 96 well drug plate was prepared by diluting with water and glycine/glutamate to a 5-fold of final test concentration. Fluorescence intensity of the cells in the plate was measured in a FlexStation using an excitation wavelength of 485 nm and an emission wavelength of 525 nm. Twenty (20) seconds after starting the recordings the compounds together with the agonists glycine (100 μM) and glutamate (100 μM) were added into the wells and the fluorescence measured for ninety (90) seconds in summary.
The IC50 values provided in the paragraph below were determined using a 3 parameter plot.

For a further assay, the target named is hERG receptor (Homo sapiens (Human), UniProt Q12809). The assay can be described thus: HERGBD: inhibition of specific [3H]-Dofetilide binding to the hERG receptor. The protocol:
Inhibition of Specific Binding to the hERG—Receptor (HERGBD)
A HEK cell line with stable transfected human ERG receptor was used for the assay. The cells were grown adherently and maintained in DULBECCOS' MEM medium with 10% FBS, 1% non-essential amino acids, 1% Penicillin/Streptomycin and 400 μg/ml G418 (Calbiochem).
For binding assays and membrane preparations the cell culture medium was removed, cells were washed with PBS. Crude membranes for radioligand binding experiments were prepared by scraping the cells off the dishes in ice cold 20 mM HEPES/0.1 mM KCl/pH 7.2. The cell suspension was homogenized on ice (Ultra turrax, 3×20 sec.) and the homogenate was spun for 10 min (1° C., 1000 g, OPTIMA, SW28, 2800 U/min). The supernatant was than centrifuged for 40 min at 100000 g (1° C., OPTIMA, SW28, 23000 U/min). The membrane pellet was re-suspended in 20 mM HEPES/0.1 mM KCl pH 7.2, frozen and stored at −80° C.
After thawing on the day of the assay, the membrane suspension was diluted further with 20 mM HEPES/0.1 mM KCl/pH 7.2.
The incubation mixture of 200 μl contained 1.5 nmol/l 3H-Dofetilide, optimized amount of membrane preparation, 20 mM HEPES/0.1 mM KCl/(pH 7.2) and inhibitor in 1% DMSO. Nonspecific binding was estimated in the presence of […] Dofetilide. The samples were incubated for 90 min. at RT.
Binding was terminated by filtration of the incubated membrane preparations using Filtermat B (Pharmacia, Uppsala Sweden) and a Micro Cell Harvester (Skatron, Lier, Norway). The Filtermat B had been presoaked with 1% polyethylen imine and carefully washed with 0.05 M Tris/HCl-buffer pH=7.7 after the filtration to separate free and bound radioactivity. The filters were counted in a scintillation counter (Betaplate 1205, Berthold, Wildbad, Germany) in order to determine the specific binding of [^3H]-Dofetilide.
The optimal amount of membrane preparation in the assay was determined and optimized for each membrane preparation separately in front of using the membranes in compound testing.
For pipetting of the incubation mixture we routinely use the robot Biomek2000 (Fa. Beckman).

Setting [2] is: [3H]-Dofetilide binding, membranes of HEK cells with human ERG receptor, read-out: IC50.

Structures are written as SMILES. Where a name gives a salt, the structure may show the parent alone. Read-outs that look alike come from different tables or passages of the source.

Sequence of human NR1/NR2B ion channels (Q13224 27-1484, other chains not shown): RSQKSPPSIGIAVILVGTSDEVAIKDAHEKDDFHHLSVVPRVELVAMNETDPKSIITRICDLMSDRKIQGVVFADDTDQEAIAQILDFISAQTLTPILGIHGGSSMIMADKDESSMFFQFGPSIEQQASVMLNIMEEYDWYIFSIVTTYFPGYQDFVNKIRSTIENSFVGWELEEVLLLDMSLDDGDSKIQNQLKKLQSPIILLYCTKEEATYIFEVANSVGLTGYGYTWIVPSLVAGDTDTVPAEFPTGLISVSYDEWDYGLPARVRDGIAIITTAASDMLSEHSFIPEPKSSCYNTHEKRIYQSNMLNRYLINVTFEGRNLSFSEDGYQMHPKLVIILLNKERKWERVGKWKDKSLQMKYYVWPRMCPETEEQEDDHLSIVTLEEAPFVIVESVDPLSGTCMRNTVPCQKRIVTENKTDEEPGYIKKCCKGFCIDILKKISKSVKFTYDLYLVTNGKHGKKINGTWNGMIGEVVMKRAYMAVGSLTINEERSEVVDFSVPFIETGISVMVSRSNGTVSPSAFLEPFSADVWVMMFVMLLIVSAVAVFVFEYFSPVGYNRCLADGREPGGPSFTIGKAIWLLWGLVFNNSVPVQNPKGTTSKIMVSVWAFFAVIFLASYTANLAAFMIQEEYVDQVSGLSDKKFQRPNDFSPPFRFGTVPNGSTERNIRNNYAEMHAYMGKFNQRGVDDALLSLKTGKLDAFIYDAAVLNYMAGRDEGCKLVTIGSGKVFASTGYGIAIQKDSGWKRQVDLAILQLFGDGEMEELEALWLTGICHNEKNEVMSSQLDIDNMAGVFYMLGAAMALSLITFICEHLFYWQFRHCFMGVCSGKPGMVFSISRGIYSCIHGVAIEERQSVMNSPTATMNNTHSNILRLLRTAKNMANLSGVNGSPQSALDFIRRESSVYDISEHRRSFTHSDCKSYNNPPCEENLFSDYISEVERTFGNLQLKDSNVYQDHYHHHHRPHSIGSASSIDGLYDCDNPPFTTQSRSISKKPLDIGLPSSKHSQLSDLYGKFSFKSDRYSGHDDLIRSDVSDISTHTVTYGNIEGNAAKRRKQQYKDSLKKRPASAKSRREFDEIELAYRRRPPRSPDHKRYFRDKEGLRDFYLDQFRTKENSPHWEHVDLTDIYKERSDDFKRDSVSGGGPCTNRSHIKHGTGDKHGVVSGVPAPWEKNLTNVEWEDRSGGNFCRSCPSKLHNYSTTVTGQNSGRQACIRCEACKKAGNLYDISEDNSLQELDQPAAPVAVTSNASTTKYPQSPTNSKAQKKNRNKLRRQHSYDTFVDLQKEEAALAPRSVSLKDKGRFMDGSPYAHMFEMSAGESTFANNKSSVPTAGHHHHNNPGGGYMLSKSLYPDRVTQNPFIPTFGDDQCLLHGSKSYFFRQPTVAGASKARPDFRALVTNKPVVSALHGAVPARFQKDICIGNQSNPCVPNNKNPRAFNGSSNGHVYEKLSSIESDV
Sequence of hERG receptor (Q12809 whole entry): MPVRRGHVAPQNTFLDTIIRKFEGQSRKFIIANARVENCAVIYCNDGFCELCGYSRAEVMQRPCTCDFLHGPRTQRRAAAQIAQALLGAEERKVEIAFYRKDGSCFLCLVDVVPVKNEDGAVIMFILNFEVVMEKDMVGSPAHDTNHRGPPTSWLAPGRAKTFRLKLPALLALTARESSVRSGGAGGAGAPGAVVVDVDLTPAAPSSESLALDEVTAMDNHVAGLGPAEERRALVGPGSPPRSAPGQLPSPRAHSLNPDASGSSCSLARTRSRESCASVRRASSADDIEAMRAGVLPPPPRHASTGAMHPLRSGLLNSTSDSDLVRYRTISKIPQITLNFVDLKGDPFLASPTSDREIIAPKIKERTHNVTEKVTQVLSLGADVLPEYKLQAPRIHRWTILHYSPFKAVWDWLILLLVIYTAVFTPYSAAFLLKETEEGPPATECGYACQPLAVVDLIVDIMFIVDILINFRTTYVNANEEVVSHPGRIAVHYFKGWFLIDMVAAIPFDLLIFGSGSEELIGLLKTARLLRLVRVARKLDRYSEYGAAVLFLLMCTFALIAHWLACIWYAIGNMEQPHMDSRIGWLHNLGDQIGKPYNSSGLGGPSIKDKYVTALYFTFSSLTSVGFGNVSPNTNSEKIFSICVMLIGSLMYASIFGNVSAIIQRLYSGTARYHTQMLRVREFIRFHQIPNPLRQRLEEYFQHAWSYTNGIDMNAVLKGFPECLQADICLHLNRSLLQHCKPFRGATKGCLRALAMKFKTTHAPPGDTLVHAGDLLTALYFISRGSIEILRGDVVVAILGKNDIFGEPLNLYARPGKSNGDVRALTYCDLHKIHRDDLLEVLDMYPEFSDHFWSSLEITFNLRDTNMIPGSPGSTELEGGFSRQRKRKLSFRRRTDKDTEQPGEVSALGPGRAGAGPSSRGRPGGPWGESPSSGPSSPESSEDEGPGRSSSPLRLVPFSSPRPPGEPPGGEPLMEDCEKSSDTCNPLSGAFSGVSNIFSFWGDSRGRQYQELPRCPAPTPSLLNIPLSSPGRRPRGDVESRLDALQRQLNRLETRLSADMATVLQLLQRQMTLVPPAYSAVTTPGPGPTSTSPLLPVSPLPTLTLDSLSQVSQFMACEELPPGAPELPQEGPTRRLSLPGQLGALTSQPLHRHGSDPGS

As for `Fc1ccc(-c2cnn(Cc3cc[nH]n3)c2)cc1C(F)F` [Example 35, 4-[3-(Difluoromethyl)-4-fluoro-phenyl]-1-(1H-pyrazol-3-ylmethyl)pyrazole], the IC50 worked out at 17.6 nM at rat NR1/NR2B receptor, 690 nM in assay [1] and 22600 nM at hERG receptor.

Turning to `CCCc1cc(Cn2cc(-c3ccc(F)c(C(F)F)c3)cn2)n[nH]1` [Example 41, 3-[[4-[3-(Difluoromethyl)-4-fluoro-phenyl]pyrazol-1-yl]methyl]-5-propyl-1H-pyrazole], the results for the IC50 (on rat NR1/NR2B receptor; in assay [1]; on hERG receptor) were 114 nM, 59700 nM and 16000 nM, respectively.

`CCc1cc(Cn2cc(-c3ccc(F)c(C(F)F)c3)cn2)n[nH]1` [Example 40, 3-[[4-[3-(Difluoromethyl)-4-fluoro-phenyl]pyrazol-1-yl]methyl]-5-ethyl-1H-pyrazole]: the figures for the IC50 (on rat NR1/NR2B receptor; in assay [1]; at hERG receptor) were 47 nM, 3300 nM and 23300 nM, respectively.

For `Cc1[nH]ncc1Cn1cc(-c2ccc(F)c(C(F)F)c2)cn1` [Example 42, 4-[3-(Difluoromethyl)-4-fluoro-phenyl]-1-[(5-methyl-1H-pyrazol-4-yl)methyl]pyrazole], the IC50 was 202 nM at rat NR1/NR2B receptor, 2300 nM in assay [1] and 71600 nM on hERG receptor.

Consider `FC(F)Oc1cc(-c2cnn(Cc3cc[nH]n3)c2)ccc1Cl` [Example 6], for which, in assay [1], the IC50 was 230 nM.

`Cn1cc(Cn2cc(-c3ccc(Cl)c(OC(F)F)c3)cn2)cn1` [Example 4, 4-[4-Chloro-3-(difluoromethoxy)phenyl]-1-[(1-methylpyrazol-4-yl)methyl]pyrazole]: the IC50 in assay [1] is 1750 nM.

As for `FC(F)c1cc(-c2cnn(Cc3cc[nH]n3)c2)ccc1Cl` [Example 26, 4-[4-Chloro-3-(difluoromethyl)phenyl]-1-(1H-pyrazol-3-ylmethyl)pyrazole], the IC50 in assay [1] amounted to 890 nM.

For `Cn1ccc(Cn2cc(-c3ccc(F)c(Cl)c3)cn2)n1` [Example 61, 3-[[4-(3-chloro-4-fluoro-phenyl)pyrazol-1-yl]methyl]-1-methyl-pyrazole Succinate], the IC50 was determined as 1380 nM at rat NR1/NR2B receptor and 24700 nM on hERG receptor.

As for `Cn1ccc(Cn2cc(-c3ccc(Cl)c(Cl)c3)cn2)n1` [Example 63, 3-[[4-(3,4-dichlorophenyl)pyrazol-1-yl]methyl]-1-methyl-pyrazole], the values for the IC50 on rat NR1/NR2B receptor and at hERG receptor (setting [2]) were 612 nM and 10800 nM, respectively.

Take `Cc1n[nH]c(C)c1Cn1cc(-c2ccc(F)c(C(F)F)c2)cn1` [Example 89, 4-[[4-(3-difluoromethyl-4-fluoro-phenyl)pyrazol-1-yl]methyl]-3,5-dimethyl-1H-pyrazole]: the results for the IC50 at rat NR1/NR2B receptor and on hERG receptor were 736 nM and 88200 nM, respectively.

For `Cc1n[nH]c(C)c1CCn1cc(-c2ccc(Cl)cc2)cn1` [Example 73, 4-[2-[4-(4-chlorophenyl)pyrazol-1-yl]ethyl]-3,5-dimethyl-1H-pyrazole], the IC50 was 1160 nM on rat NR1/NR2B receptor and 98000 nM on hERG receptor.

As for `CCc1[nH]ncc1Cn1cc(-c2ccc(Cl)c(OC(F)F)c2)cn1` [Example 17, 4-[4-Chloro-3-(difluoromethoxy)phenyl]-1-[(5-ethyl-1H-pyrazol-4-yl)methyl]pyrazole], in assay [1], the IC50 was 3700 nM.

In the case of `Cc1cc(Cn2cc(-c3cccc(C(F)(F)F)c3)cn2)n(C)n1` [Example 48, 1,3-dimethyl-5-[[4-[3-(trifluoromethyl)phenyl]pyrazol-1-yl]methyl]pyrazole], the IC50 at rat NR1/NR2B receptor is 1970 nM; on hERG receptor it was 37400 nM.

In the case of `FC(F)Oc1cc(-c2cnn(Cc3ccn(C4CCCC4)n3)c2)ccc1Cl` [Example 12, 3-[[4-[4-Chloro-3-(difluoromethoxy)phenyl]pyrazol-1-yl]methyl]-1-cyclopentyl-pyrazole], the IC50 on rat NR1/NR2B receptor came to 280 nM; on hERG receptor, 8060 nM.

Take `Cc1cc(Cn2cc(-c3ccc(Cl)c(C(F)F)c3)cn2)n(C)n1` [Example 25, 5-[[4-[4-Chloro-3-(difluoromethyl)phenyl]pyrazol-1-yl]methyl]-1,3-dimethyl-pyrazole]: the values for the IC50 at rat NR1/NR2B receptor and on hERG receptor (setting [2]) were 980 nM and 49600 nM, respectively.

With `Cc1n[nH]c(C)c1CCn1cc(-c2ccc(F)c(C(F)F)c2)cn1` [Example 36, 4-[2-[4-[3-(Difluoromethyl)-4-fluoro-phenyl]pyrazol-1-yl]ethyl]-3,5-dimethyl-1H-pyrazole], the IC50 at rat NR1/NR2B receptor stood at 424 nM; at hERG receptor it was 29600 nM.

Take `Cc1cc(Cn2cc(-c3ccc(Cl)c(F)c3)cn2)n(C)n1` [Example 60, 5-[[4-(4-chloro-3-fluoro-phenyl)pyrazol-1-yl]methyl]-1,3-dimethyl-pyrazole]: the IC50 stood at 2170 nM at rat NR1/NR2B receptor and 31600 nM at hERG receptor (setting [2]).

`Cn1nccc1Cn1cc(-c2ccccc2)cn1` [Example 87, 1-Methyl-5-[(4-phenylpyrazol-1-yl)methyl]pyrazole; succinic acid]: on rat NR1/NR2B receptor (1 μM test compound, read-out: % INH @ 1 μM), the inhibition at 1 µM is -3.3%. The inhibition at 10 µM on rat NR1/NR2B receptor (10 μM test compound, read-out: % INH @ 10 μM) came to 28.8%. For the same compound, the IC50 at hERG receptor (setting [2]) is over 100000 nM.

For `CCc1[nH]ncc1Cn1cc(-c2ccc(F)c(OC(F)F)c2)cn1` [Example 20, 4-[3-(difluoromethoxy)-4-fluoro-phenyl]-1-[(5-ethyl-1H-pyrazol-4-yl)methyl]pyrazole Tartrate], the IC50 in assay [1] was determined as 5970 nM.

For `Cn1ccc(Cn2cc(-c3ccc(Cl)c(C(F)(F)F)c3)cn2)n1` [Example 30, 3-[[4-[4-chloro-3-(trifluoromethyl)phenyl]pyrazol-1-yl]methyl]-1-methyl-pyrazole], the IC50 at rat NR1/NR2B receptor is 1010 nM; on hERG receptor it was 3470 nM.
